From ChEMBL document CHEMBL5029183 (J Med Chem, 2021)
The source made the active and inactive calls.

Tests used:
Mus musculus [1] = experiment: Antinociceptive tolerance in Kunming mouse pretreated with compound for 3 hrs followed by challenge with second dose of compound at 20 nmol, icv and measured after 3 hrs by radiant heat paw withdrawal test; format: functional, organism-based; settings: time 6.0 hrs
Mus musculus [2] = experiment: Chronic antinociceptive tolerance in Kunming mouse pretreated with compound followed by repeated compound addition at 10 micromol/kg, sc once daily for 7 days and measured after 10 mins by radiant heat paw withdrawal test; format: functional, organism-based; settings: dose 10.0 µmol/kg, time 7.0 day
[3] = target: Delta-type opioid receptor (Rattus norvegicus, UniProt P33533); experiment: Displacement of [3H]DPDPE from DOR in Wistar rat brain membranes measured after 3 hrs by scintillation counting method; format: cell membranes, Membrane
Mus musculus [4] = experiment: Antiallodynic activity in Kunming mouse model of spared nerve injury-induced neuropathic pain assessed as increase in paw withdrawal threshold at 0.67 to 6.7 nmol, icv by von Frey test; format: functional, organism-based; settings: dose 0.67-6.7 nmol, time min <=50, TDE = time-dependent effect
[5] = Metabolic stability in Kunming mouse brain assessed as half life measured upto 480 mins by RP-HPLC analysis; format: ADME, tissue-based
Mus musculus [6] = experiment: Antinociceptive activity in icv dosed Kunming mouse model assessed as increase in paw withdrawal latency by radiant heat paw withdrawal assay; format: functional; settings: dose 0.67-20 nmol
Mus musculus [7] = experiment: Antinociceptive tolerance in Kunming mouse pretreated with compound for 3 hrs followed by challenge with second dose of compound at 20 nmol, icv and measured after 1 to 1.5 hrs by radiant heat paw withdrawal test; format: functional, organism-based; settings: time 4-4.5 hrs
Mus musculus [8] = experiment: Antinociceptive activity in Kunming mouse model assessed as maximum possible effect at 10 micromol/kg, sc by radiant heat paw withdrawal assay; format: functional; settings: dose 10 µmol/kg
Mus musculus [9] = experiment: Antiallodynic activity in Kunming mouse model of CFA-induced inflammatory pain assessed as increase in ipsilateral withdrawal threshold at 10 micromol/kg, sc measured at 10 to 50 mins by von Frey test; format: functional, organism-based; settings: dose 10.0 µmol/kg, time 10-50 min
Mus musculus [10] = organism: Mus musculus; experiment: Tolerance ratio of ED50 for Kunming mouse pretreated with 3 times ED50 of compound for 2 hrs followed by challenge with second dose of compound to ED50 for Kunming mouse pretreated with saline for 2 hrs followed by compound addition; format: functional
Rattus norvegicus [11] = organism: Rattus norvegicus; experiment: Selectivity index, ratio of Ki for displacement of [3H]DPDPE from DOR in Wistar rat brain membranes to Ki for displacement of [3H]DAMGO from MOR in Wistar rat brain membranes; format: cell membranes
[12] = Toxicity in icv dosed Kunming mouse assessed as inhibition of gastrointestinal transit by measuring charcoal distance travel by charcoal meal test; format: organism-based; settings: in vivo, icv_or_intrathecal, dose 0.67-6.7 nmol
Rattus norvegicus [13] = organism: Rattus norvegicus; experiment: Selectivity index, ratio of Ki for displacement of [3H]-U69593 from KOR in Wistar rat brain membranes to Ki for displacement of [3H]DAMGO from MOR in Wistar rat brain membranes; format: cell membranes
Mus musculus [14] = experiment: Chronic antinociceptive tolerance in Kunming mouse pretreated with compound followed by repeated compound addition at 20 nmol, icv once daily for 7 days and measured after 10 mins by radiant heat paw withdrawal test; format: functional, organism-based; settings: time 7.0 day
Mu-type opioid receptor = Mu-type opioid receptor (Homo sapiens, UniProt P35372); experiment: Agonist activity at mu-opioid receptor (unknown origin) expressed in HEK293 cells assessed as inhibition of forskolin-induced cAMP accumulation incubated for 15 mins by ELISA relative to control; format: functional, cell-based; settings: filed as agonist
Mus musculus [15] = experiment: Antinociceptive activity in Kunming mouse model assessed as increase in paw withdrawal latency at 20 nmol, icv pretreated for 20 mins with naloxonazine followed by compound addition and measured upto 10 mins by radiant heat paw withdrawal assay; format: functional, organism-based; settings: time min <=10
Mus musculus [16] = experiment: Chronic antinociceptive tolerance in Kunming mouse assessed as maximum possible effect pretreated with compound followed by repeated compound addition at 20 nmol, icv once daily for 7 days and measured after 10 mins by radiant heat paw withdrawal test; format: functional; settings: time 7 day

Chain of Mu-type opioid receptor (P35372 whole entry): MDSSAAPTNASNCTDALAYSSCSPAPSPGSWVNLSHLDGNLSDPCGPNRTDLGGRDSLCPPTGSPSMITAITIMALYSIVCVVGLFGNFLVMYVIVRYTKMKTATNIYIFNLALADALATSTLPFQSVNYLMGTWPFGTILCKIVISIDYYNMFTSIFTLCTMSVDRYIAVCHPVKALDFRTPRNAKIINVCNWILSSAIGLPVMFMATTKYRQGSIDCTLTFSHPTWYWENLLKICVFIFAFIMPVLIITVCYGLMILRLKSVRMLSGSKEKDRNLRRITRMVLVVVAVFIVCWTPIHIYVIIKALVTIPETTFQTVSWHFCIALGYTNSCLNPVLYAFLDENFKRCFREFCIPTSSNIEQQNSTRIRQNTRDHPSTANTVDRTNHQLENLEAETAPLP
Chain of Delta-type opioid receptor (P33533 whole entry): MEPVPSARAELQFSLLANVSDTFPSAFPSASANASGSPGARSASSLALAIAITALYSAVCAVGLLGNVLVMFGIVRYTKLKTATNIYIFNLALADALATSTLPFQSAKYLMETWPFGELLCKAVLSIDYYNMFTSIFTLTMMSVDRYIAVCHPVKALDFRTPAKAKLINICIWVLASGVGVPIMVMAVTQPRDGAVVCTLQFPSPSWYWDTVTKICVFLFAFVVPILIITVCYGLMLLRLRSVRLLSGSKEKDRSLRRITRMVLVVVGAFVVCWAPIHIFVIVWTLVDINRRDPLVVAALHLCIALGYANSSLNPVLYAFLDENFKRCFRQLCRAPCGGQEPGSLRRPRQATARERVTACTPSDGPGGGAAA

| Compound | Activity (Mus musculus [1]) | Activity (Mus musculus [2]) | Ki [3] [µM] | Activity (Mus musculus [4]) | half-life [5] [h] | Activity (Mus musculus [6]) | ED50 (Mus musculus [6]) [nmol] | Activity (Mus musculus [7]) | MPE (Mus musculus [8]) [%] | Activity (Mus musculus [9]) | Ratio (Mus musculus [10]) | Ratio Ki (Rattus norvegicus [11]) | Activity [12] | Ratio Ki (Rattus norvegicus [13]) | Activity (Mus musculus [14]) | Emax (Mu-type opioid receptor) [%] | Activity (Mus musculus [15]) | MPE (Mus musculus [16]) [%] |
| --- | --- | --- | --- | --- | --- | --- | --- | --- | --- | --- | --- | --- | --- | --- | --- | --- | --- | --- |
| Cc1cc(O)cc(C)c1C[C@H](N)C(=O)N[C@H]1CSSC[C@@H](C(=O)NCC(=O)N[C@H](CCCNC(=N)N)C(=O)N[C@H](CCCNC(=N)N)C(=O)O)NC(=O)[C@H](Cc2ccc(Cl)cc2)NC(=O)[C@H](Cc2c[nH]c3ccccc23)NC1=O | inactive | inactive | 2.09 | Tde | 7.48 | Dose-Dependent Effect | 2.1 | inactive | 79.76 | Active | 1.2 | 361 | Dose-Dependent Effect | 548 | inactive | 87.3 | Active | – |
| Cc1cc(O)cc(C)c1C[C@H](N)C(=O)N[C@H]1CSSC[C@@H](C(=O)NCC(=O)N[C@H](CCCNC(=N)N)C(=O)N[C@H](CCCNC(=N)N)C(=O)O)NC(=O)[C@H](Cc2ccc(Cl)cc2)NC(=O)[C@H](Cc2ccccc2)NC1=O | inactive | inactive | 4.27 | Tde | 7.13 | Dose-Dependent Effect | 2.3 | inactive | 75.33 | Active | 1.5 | 705 | Dose-Dependent Effect | 710 | – | 83.8 | inactive | 77.25 |
